For one test, the system named is S. mutans. As to the kind of experiment: Toxic cargo DM assay. It counts as cell-based, Streptococcus mutans. The settings on record: monoculture, 1 min; CHX 0.033% and H2O2 0.25% final concentration, no DM (FIG. 8A left). How it is done:
(§1) DM was hydrated in THB only (control) or THB containing either hydrogen peroxide (1.5%) or chlorhexidine (0.2%) to create a 10% (w/v) slurry. For Applicant's DM assays, 250 μl of hydrated DM G25 superfine (125 μl final volume; 12.5 mg) was added to a Micro Bio-Spin chromatography column (BioRad, Hercules, Calif.) and excess liquid was removed by centrifugation at 100×g for 30 seconds, leaving DM with toxic cargo in the lumen. 125 μl of THB (the same volume of excess toxic cargo removed by filtration) was added to the DM column to create a 10% slurry (w/v), followed by the immediate addition of 500 μl of culture as described above for Applicant's basic DM assay. For control assays containing no DM, 125 μl of THB or THB containing toxic cargo (the same volume that is present in the DM lumen) was added to the spin column containing 125 THB followed by the addition of 500 μl of culture as described above for Applicant's basic DM assay. After incubation for 1 minute at RT, the cell/DM mixture was centrifuged for 1 minute at 100×g. The flow-through was serial diluted in PBS, and serial dilutions were plated onto THB (S. gordonii) or THB containing 1.5 μg/ml erythromycin (S. mutans) or LB (E. coli) agar and incubated at 37° C.+5% CO2. […]

A further test relates to S. gordonii. The experiment in a line: Toxic cargo DM assay. The test is classed as cell-based, Streptococcus gordonii. The settings on record: monoculture, 1 min; CHX 0.033% and H2O2 0.25% final concentration, no DM (FIG. 8A left). How it is done: as §1

Molecules are shown by their SMILES.

On to `[H]/N=C(\N/C(=N/[H])NCCCCCCNC(=N)NC(=N)Nc1ccc(Cl)cc1)Nc1ccc(Cl)cc1` [CHX, chlorhexidine], for which the “Total viable S. mutans after antimicrobial alone (no DM)” value with S. mutans was “decreased the amount of total viable S. mutans and S. gordonii”. Besides, in the test with S. gordonii, the “Total viable S. gordonii after antimicrobial alone (no DM)” value was “decreased the amount of total viable S. mutans and S. gordonii”.

Turning to `OO` [H2O2, hydrogen peroxide], the “Total viable S. mutans after antimicrobial alone (no DM)” value in the test with S. mutans was “decreased the amount of total viable S. mutans and S. gordonii”. In addition, the “Total viable S. gordonii after antimicrobial alone (no DM)” value in the test with S. gordonii is “decreased the amount of total viable S. mutans and S. gordonii”.
